Reference: patent publication US10968203B2, “Pyrimidinyl-pyridyloxy-naphthyl compounds and methods of treating IRE1-related diseases and disorders” (Genentech, Inc., priority 2017, dated 2021)
Counter-ions that a name gives are not always drawn.

Each compound was assayed on XBP1s-luc 293 LUC (assay: cellular PD assay, XBP1s-LUC reporter (Example 903)). Conditions: Table 1; read-out: XBP1s-luc 293 LUC (IC50).
Format: cell-based
Method in brief: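 A luciferase fusion, in frame and expressed only when the XBP1 transcript is spliced, served as the readout of cellular IRE1α activity in an XBP1-Luc reporter line.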

Row | SMILES | IC50
1 | Cc1ccc2c(NC(=O)c3cccc(C(C)(C)C#N)c3)cccc2c1Oc1ncccc1-c1ccnc(N[C@H]2CCCNC2)n1 [Example 101, (S)-3-(2-Cyanopropan-2-yl)-N-(6-methyl-5-((3-(2-(piperidin-3-ylamino)pyrimidin-4-yl)pyridin-2-yl)oxy)naphthalen-1-yl)benzamide] | 102 nM
2 | Cc1ccc2c(NS(=O)(=O)Cc3ccccc3Cl)c(F)ccc2c1Oc1ncccc1-c1ccnc(N[C@H]2CCCNC2)n1 [Example 102, (S)-1-(2-Chlorophenyl)-N-(2-fluoro-6-methyl-5-((3-(2-(piperidin-3-ylamino)pyrimidin-4-yl)pyridin-2-yl)oxy)naphthalen-1-yl)methanesulfonamide] | 4.6 nM
3 | CCS(=O)(=O)Nc1cccc2c(Oc3ncccc3-c3ccnc(N[C@H]4CCCNC4)n3)c(C)ccc12 [Example 103, (S)—N-(6-Methyl-5-((3-(2-(piperidin-3-ylamino)pyrimidin-4-yl)pyridin-2-yl)oxy)naphthalen-1-yl)ethanesulfonamide] | 255 nM
4 | CCCS(=O)(=O)Nc1cccc2c(Oc3ncccc3-c3ccnc(N[C@H]4CCCNC4)n3)c(C)ccc12 [Example 104, (S)—N-(6-Methyl-5-(3-(2-(piperidin-3-ylamino)pyrimidin-4-yl)pyridin-2-yloxy)naphthalen-1-yl)propane-1-sulfonamide hydrochloride] | 131 nM
5 | Cc1ccc2c(NS(=O)(=O)C3CC3)cccc2c1Oc1ncccc1-c1ccnc(N[C@H]2CCCNC2)n1 [Example 105, (S)—N-(6-Methyl-5-((3-(2-(piperidin-3-ylamino)pyrimidin-4-yl)pyridin-2-yl)oxy)naphthalen-1-yl)cyclopropanesulfonamide hydrochloride] | 493 nM
6 | Cc1ccc2c(NS(=O)(=O)C(C)C)cccc2c1Oc1ncccc1-c1ccnc(N[C@H]2CCCNC2)n1 [Example 106, (S)—N-(6-Methyl-5-((3-(2-(piperidin-3-ylamino)pyrimidin-4-yl)pyridin-2-yl)oxy)naphthalen-1-yl) methylethylsulfonamide hydrochloride] | 349 nM
7 | Cc1ccc2c(NS(=O)(=O)C3CCC3)cccc2c1Oc1ncccc1-c1ccnc(N[C@H]2CCCNC2)n1 [Example 107, (S)—N-(6-Methyl-5-((3-(2-(piperidin-3-ylamino)pyrimidin-4-yl)pyridin-2-yl)oxy)naphthalen-1-yl)cyclobutanesulfonamide hydrochloride] | 252 nM
8 | Cc1ccc2c(NS(=O)(=O)N3CCCC3)cccc2c1Oc1ncccc1-c1ccnc(N[C@H]2CCCNC2)n1 [Example 108, (S)—N-(6-Methyl-5-((3-(2-(piperidin-3-ylamino)pyrimidin-4-yl)pyridin-2-yl)oxy)naphthalen-1-yl)pyrrolidine-1-sulfonamide hydrochloride] | 298 nM
9 | Cc1ccc2c(NS(=O)(=O)N(C)C)cccc2c1Oc1ncccc1-c1ccnc(N[C@H]2CCCNC2)n1 [Example 109, 4-[2-[[5-(Dimethylsulfamoylamino)-2-methyl-1-naphthyl]oxy]-3-pyridyl]-2-[[(3S)-3-piperidyl]amino]pyrimidine hydrochloride] | 222 nM
10 | Cc1cc(NS(=O)(=O)Cc2ccccc2)c2ccccc2c1Oc1ncccc1-c1ccnc(N[C@H]2CC[C@H](N)CC2)n1 [Example 110, N-(4-((3-(2-(((1r,4r)-4-aminocyclohexyl)amino)pyrimidin-4-yl)pyridin-2-yl)oxy)-3-methylnaphthalen-1-yl)-1-phenylmethanesulfonamide hydrochloride] | 119 nM
11 | Cc1cc(NS(=O)(=O)C2CCC2)c2ccccc2c1Oc1ncccc1-c1ccnc(N[C@H]2CC[C@H](N)CC2)n1 [Example 111, N-(4-((3-(2-(((trans)-4-Aminocyclohexyl)amino)pyrimidin-4-yl)pyridin-2-yl)oxy)-3-methylnaphthalen-1-yl)cyclobutanesulfonamide hydrochloride] | 447 nM
12 | Cc1ccc2c(NS(=O)(=O)Cc3ccccc3)cccc2c1Oc1ncccc1-c1ccnc(N[C@H]2CCCNC2)n1 [Example 112, (S)—N-(6-Methyl-5-((3-(2-(piperidin-3-ylamino)pyrimidin-4-yl)pyridin-2-yl)oxy)naphthalen-1-yl)-1-phenylmethanesulfonamide hydrochloride] | 21 nM
13 | CCN(C)S(=O)(=O)Nc1cccc2c(Oc3ncccc3-c3ccnc(N[C@H]4CCCNC4)n3)c(C)ccc12 [Example 113, 4-[2-[[5-[[Ethyl(methyl)sulfamoyl]amino]-2-methyl-1-naphthyl]oxy]-3-pyridyl]-2-[[(3S)-3-piperidyl]amino]pyrimidine hydrochloride] | 343 nM
14 | Cc1ccc2c(NS(=O)(=O)N3CCCCC3)cccc2c1Oc1ncccc1-c1ccnc(N[C@H]2CCCNC2)n1 [Example 114, (S)—N-(6-Methyl-5-((3-(2-(piperidin-3-ylamino)pyrimidin-4-yl)pyridin-2-yl)oxy)naphthalen-1-yl)piperidine-1-sulfonamide hydrochloride] | 382 nM
15 | Cc1ccc2c(NC(=O)c3ccccc3)cccc2c1Oc1ncccc1-c1ccnc(N[C@H]2CCCNC2)n1 [Example 115, (S)—N-(6-Methyl-5-((3-(2-(piperidin-3-ylamino)pyrimidin-4-yl)pyridin-2-yl)oxy)naphthalen-1-yl)benzamide hydrochloride] | 262 nM
16 | Cc1ccc2c(NC(=O)N3CCCCC3)cccc2c1Oc1ncccc1-c1ccnc(N[C@H]2CCCNC2)n1 [Example 116, (S)—N-(6-Methyl-5-((3-(2-(piperidin-3-ylamino)pyrimidin-4-yl)pyridin-2-yl)oxy)naphthalen-1-yl)piperidine-1-carboxamide hydrochloride] | 430 nM
17 | CCCC(=O)Nc1cccc2c(Oc3ncccc3-c3ccnc(N[C@H]4CCCNC4)n3)c(C)ccc12 [Example 117, (S)—N-(6-Methyl-5-((3-(2-(piperidin-3-ylamino)pyrimidin-4-yl)pyridin-2-yl)oxy)naphthalen-1-yl)butyramide hydrochloride] | 145 nM
18 | Cc1ccc2c(NS(=O)(=O)CCCF)cccc2c1Oc1ncccc1-c1ccnc(N[C@H]2CCCNC2)n1 [Example 118, (S)-3-Fluoro-N-(6-methyl-5-((3-(2-(piperidin-3-ylamino)pyrimidin-4-yl)pyridin-2-yl)oxy)naphthalen-1-yl)propane-1-sulfonamide hydrochloride] | 323 nM
19 | Cc1cc(NS(=O)(=O)C2CCCC2)c2ccccc2c1Oc1ncccc1-c1ccnc(N[C@H]2CC[C@H](N)CC2)n1 [Example 119, N-(4-((3-(2-(((trans)-4-aminocyclohexyl)amino)pyrimidin-4-yl)pyridin-2-yl)oxy)-3-methylnaphthalen-1-yl)cyclopentanesulfonamide hydrochloride] | 312 nM
20 | Cc1ccc2c(NS(=O)(=O)C3CCCC3)cccc2c1Oc1ncccc1-c1ccnc(N[C@H]2CCCNC2)n1 [Example 120, (S)—N-(6-Methyl-5-((3-(2-(piperidin-3-ylamino)pyrimidin-4-yl)pyridin-2-yl)oxy)naphthalen-1-yl)cyclopentanesulfonamide hydrochloride] | 180 nM
21 | Cc1ccc2c(NS(=O)(=O)CC(C)C)cccc2c1Oc1ncccc1-c1ccnc(N[C@H]2CCCNC2)n1 [Example 121, (S)-2-Methyl-N-(6-methyl-5-((3-(2-(piperidin-3-ylamino)pyrimidin-4-yl)pyridin-2-yl)oxy)naphthalen-1-yl)propane-1-sulfonamide hydrochloride] | 103 nM
22 | Cc1ccc2c(NS(=O)(=O)CC(F)(F)F)cccc2c1Oc1ncccc1-c1ccnc(N[C@H]2CCCNC2)n1 [Example 122, (S)-2,2,2-Trifluoro-N-(6-methyl-5-((3-(2-(piperidin-3-ylamino)pyrimidin-4-yl)pyridin-2-yl)oxy)naphthalen-1-yl)ethane-1-sulfonamide hydrochloride] | 105 nM
23 | Cc1ccc2c(NS(=O)(=O)CCC(F)(F)F)cccc2c1Oc1ncccc1-c1ccnc(N[C@H]2CCCNC2)n1 [Example 123, (S)-3,3,3-Trifluoro-N-(6-methyl-5-((3-(2-(piperidin-3-ylamino)pyrimidin-4-yl)pyridin-2-yl)oxy)naphthalen-1-yl)propane-1-sulfonamide hydrochloride] | 84 nM
24 | Cc1ccc2c(NS(=O)(=O)CC3CC3)cccc2c1Oc1ncccc1-c1ccnc(N[C@H]2CCCNC2)n1 [Example 124, (S)-1-Cyclopropyl-N-(6-methyl-5-((3-(2-(piperidin-3-ylamino)pyrimidin-4-yl)pyridin-2-yl)oxy)naphthalen-1-yl)methanesulfonamide hydrochloride] | 105 nM
25 | Cc1ccc2c(NS(=O)(=O)Cc3cccnc3)cccc2c1Oc1ncccc1-c1ccnc(N[C@H]2CCCNC2)n1 [Example 125, (S)—N-(6-Methyl-5-((3-(2-(piperidin-3-ylamino)pyrimidin-4-yl)pyridin-2-yl)oxy)naphthalen-1-yl)-1-(pyridin-3-yl)methanesulfonamide hydrochloride] | 318 nM

Same assay, conditions: Table 2; read-out: XBP1s-luc 293 LUC (IC50)

Row | SMILES | IC50
26 | CCC(F)(F)CS(=O)(=O)Nc1c(F)ccc2c(Oc3ncccc3-c3ccnc(N[C@@H]4CNC[C@@H](F)C4)n3)c(C)ccc12 (single isomer, unassigned) [Example 496, hydrochloride] | 17.9 nM
27 | Cc1ccc2c(NS(=O)(=O)CCC(C)(F)F)c(F)ccc2c1Oc1ncccc1-c1ccnc(N[C@H]2CNC[C@H](F)C2)n1 (single isomer, unassigned) [Example 497, hydrochloride] | 5100 nM
28 | Cc1ccc2c(NS(=O)(=O)CCC(C)(F)F)c(F)ccc2c1Oc1ncccc1-c1ccnc(N[C@@H]2CNC[C@@H](F)C2)n1 (single isomer, unassigned) [Example 498, hydrochloride] | 33 nM
29 | Cc1ccc2c(NS(=O)(=O)N(C)CC(F)(F)F)c(F)ccc2c1Oc1ncccc1-c1ccnc(N[C@H]2CNC[C@H](F)C2)n1 (single isomer, unassigned) [Example 499, hydrochloride] | 680 nM
30 | Cc1ccc2c(NS(=O)(=O)N(C)CC(F)(F)F)c(F)ccc2c1Oc1ncccc1-c1ccnc(N[C@@H]2CNC[C@@H](F)C2)n1 (single isomer, unassigned) [Example 500, hydrochloride] | 8.7 nM
